Experimental data taken from patent EP0007672A1, “Isocyanoalkenes, process and useful intermediates for their preparation, pharmaceutical and fungicidal preparations containing those isocyanoalkenes and the use of the fungicidal preparations in agriculture” (GIST-BROCADES N.V., priority 1978, dated 1980).
In brackets after ≈: the same amount, converted by molar mass. Like-named read-outs stand apart in the source and are kept apart here.

Experiments:
Test in all cases: MIC (Minimum Inhibitory Concentration)
Type in all cases: cell-based
Candida albicans = tested on: Candida albicans
Pasteurella multocida = Pasteurella multocida A 723; read-out: MIC values
[1] = tested on: Streptococcus haemolyticus; details: Streptococcus haemolyticus A 1088; read-out: MIC values
Trichophyton equinum = tested on: Trichophyton equinum
[2] = tested on: Trichophyton mentagrophytus
Trichophyton quickeaneum = Trichophyton quickeaneum A 2040; read-out: MIC values
Trichophyton rubrum = tested on: Trichophyton rubrum
[3] = tested on: Trichophyton schoenleinii; details: Trichophyton schoenleinii 435-63; read-out: MIC values
[4] = tested on: Trichophyton soudanese joyeux; details: Trichophyton soudanese joyeux 440-63; read-out: MIC values
Trichophyton tonsurans = Trichophyton tonsurans 561-50; read-out: MIC values
Trichophyton verrucosum = tested on: Trichophyton verrucosum
Trichophyton violoceum = Trichophyton violoceum 442-62; read-out: MIC values
[5] = Candida albicans A 7, read-out: MIC values
[6] = Candida albicans A 3140, read-out: MIC values
[7] = Candida albicans A 3141, read-out: MIC values
[8] = Candida albicans A 3142, read-out: MIC values
[9] = Candida albicans A 3143, read-out: MIC values
[10] = Candida albicans A 3144, read-out: MIC values
[11] = Candida albicans A 3145, read-out: MIC values
[12] = Candida albicans A 3165, read-out: MIC values
[13] = Candida albicans A 3166, read-out: MIC values
[14] = Candida albicans A 3167, read-out: MIC values
[15] = Candida albicans A 3168, read-out: MIC values
[16] = Candida albicans A 3169, read-out: MIC values
[17] = Candida albicans A 3171, read-out: MIC values
[18] = Candida albicans A 3184, read-out: MIC values
[19] = Candida albicans A 3190, read-out: MIC values
[20] = Candida albicans A 3191, read-out: MIC values
[21] = Candida albicans A 3192, read-out: MIC values
[22] = Candida albicans A 3194, read-out: MIC values
[23] = Candida albicans A 3196, read-out: MIC values
[24] = Trichophyton equinum 441-51, read-out: MIC values
[25] = Trichophyton equinum 856-71, read-out: MIC values
[26] = Trichophyton mentagrophytus 367-68, read-out: MIC values
[27] = Trichophyton mentagrophytus 421-67, read-out: MIC values
[28] = Trichophyton mentagrophytus A 3252, read-out: MIC values
[29] = Trichophyton mentagrophytus R 177, read-out: MIC values
[30] = Trichophyton mentagrophytus R 178, read-out: MIC values
[31] = Trichophyton mentagrophytus RRL 305, read-out: MIC values
[32] = Trichophyton rubrum 218-65, read-out: MIC values
[33] = Trichophyton rubrum 494-62, read-out: MIC values
[34] = Trichophyton rubrum A 810, read-out: MIC values
[35] = Trichophyton verrucosum 134-66, read-out: MIC values

Row | MIC (Candida albicans; [5]) [µg/mL] | MIC (Candida albicans; [6]) [µg/mL] | MIC (Candida albicans; [7]) [µg/mL] | MIC (Candida albicans; [8]) [µg/mL] | MIC (Candida albicans; [9]) [µg/mL] | MIC (Candida albicans; [10]) [µg/mL] | MIC (Candida albicans; [11]) [µg/mL] | MIC (Candida albicans; [12]) [µg/mL] | MIC (Candida albicans; [13]) [µg/mL] | MIC (Candida albicans; [14]) [µg/mL] | MIC (Candida albicans; [15]) [µg/mL] | MIC (Candida albicans; [16]) [µg/mL] | MIC (Candida albicans; [17]) [µg/mL] | MIC (Candida albicans; [18]) [µg/mL] | MIC (Candida albicans; [19]) [µg/mL] | MIC (Candida albicans; [20]) [µg/mL] | MIC (Candida albicans; [21]) [µg/mL] | MIC (Candida albicans; [22]) [µg/mL] | MIC (Candida albicans; [23]) [µg/mL] | MIC (Pasteurella multocida) [µg/mL] | SMILES | further results
1 | 0.8 (≈ 2.52 µM) | 0.4 (≈ 1.26 µM) | 0.8 (≈ 2.52 µM) | 1.5 (≈ 4.72 µM) | 1.5 (≈ 4.72 µM) | 1.5 (≈ 4.72 µM) | 1.5 (≈ 4.72 µM) | 1.5 (≈ 4.72 µM) | 1.5 (≈ 4.72 µM) | 1.5 (≈ 4.72 µM) | 0.8 (≈ 2.52 µM) | 1.5 (≈ 4.72 µM) | 1.5 (≈ 4.72 µM) | 1.5 (≈ 4.72 µM) | 1.5 (≈ 4.72 µM) | 1.5 (≈ 4.72 µM) | 1.5 (≈ 4.72 µM) | 1.5 (≈ 4.72 µM) | 3 (≈ 9.44 µM) | 6 (≈ 18.9 µM) | [C-]#[N+]C(=Cc1ccc(Cl)cc1)S(=O)(=O)c1ccc(C)cc1 [Example 11, 1-isocyanv-2-(4-chlorophenyl)-1-(4-toluenesulphonyl)-ethene] | MIC [1]: 3 µg/mL (≈ 9.44 µM); MIC (Trichophyton equinum; Trichophyton equinum 182-76, read-out: MIC values): 3 µg/mL (≈ 9.44 µM); MIC (Trichophyton equinum; [24]): 0.4 µg/mL (≈ 1.26 µM); MIC (Trichophyton equinum; [25]): < 0.05 µg/mL; MIC [2, 26]: 1.5 µg/mL (≈ 4.72 µM); MIC [2, 27]: 6 µg/mL (≈ 18.9 µM); MIC [2, 28]: 1.5 µg/mL (≈ 4.72 µM); MIC [2, 29]: 3 µg/mL (≈ 9.44 µM); MIC [2, 30]: > 100 µg/mL; MIC [2, 31]: 1.5 µg/mL (≈ 4.72 µM); MIC (Trichophyton quickeaneum): 1.5 µg/mL (≈ 4.72 µM); MIC (Trichophyton rubrum; [32]): 1.5 µg/mL (≈ 4.72 µM); MIC (Trichophyton rubrum; [33]): 1.5 µg/mL (≈ 4.72 µM); MIC (Trichophyton rubrum; [34]): 0.8 µg/mL (≈ 2.52 µM); MIC [3]: 0.4 µg/mL (≈ 1.26 µM); MIC [4]: 6 µg/mL (≈ 18.9 µM); MIC (Trichophyton tonsurans): 6 µg/mL (≈ 18.9 µM); MIC (Trichophyton verrucosum; [35]): < 0.05 µg/mL; MIC (Trichophyton verrucosum; Trichophyton verrucosum A 2922, read-out: MIC values): 0.4 µg/mL (≈ 1.26 µM); MIC (Trichophyton violoceum): 0.1 µg/mL (≈ 0.315 µM)
2 | 1.5 (≈ 4.38 µM) | 3 (≈ 8.76 µM) | 3 (≈ 8.76 µM) | 3 (≈ 8.76 µM) | 1.5 (≈ 4.38 µM) | 3 (≈ 8.76 µM) | 3 (≈ 8.76 µM) | 3 (≈ 8.76 µM) | 1.5 (≈ 4.38 µM) | 1.5 (≈ 4.38 µM) | 3 (≈ 8.76 µM) | 3 (≈ 8.76 µM) | 3 (≈ 8.76 µM) | 1.5 (≈ 4.38 µM) | 3 (≈ 8.76 µM) | 3 (≈ 8.76 µM) | 3 (≈ 8.76 µM) | 1.5 (≈ 4.38 µM) | 3 (≈ 8.76 µM) | 6 (≈ 17.5 µM) | [C-]#[N+]C(=C(C)c1ccc([N+](=O)[O-])cc1)S(=O)(=O)c1ccc(C)cc1 [Example 22, 1-isocyano-2-(4-nitrophenyl)-1-(4-toluenesulphonyl)-1-propene] | MIC [1]: 0.8 µg/mL (≈ 2.34 µM); MIC (Trichophyton equinum; [24]): 1.5 µg/mL (≈ 4.38 µM); MIC (Trichophyton equinum; [25]): 25 µg/mL (≈ 73 µM); MIC [2, 26]: 3 µg/mL (≈ 8.76 µM); MIC [2, 27]: 12.5 µg/mL (≈ 36.5 µM); MIC [2, 28]: 12.5 µg/mL (≈ 36.5 µM); MIC [2, 29]: 6 µg/mL (≈ 17.5 µM); MIC [2, 30]: 6 µg/mL (≈ 17.5 µM); MIC [2, 31]: 6 µg/mL (≈ 17.5 µM); MIC (Trichophyton rubrum; [32]): 3 µg/mL (≈ 8.76 µM); MIC (Trichophyton rubrum; [33]): 6 µg/mL (≈ 17.5 µM); MIC (Trichophyton rubrum; [34]): 3 µg/mL (≈ 8.76 µM); MIC [3]: 3 µg/mL (≈ 8.76 µM); MIC [4]: 3 µg/mL (≈ 8.76 µM); MIC (Trichophyton tonsurans): 1.5 µg/mL (≈ 4.38 µM); MIC (Trichophyton verrucosum; [35]): 1.5 µg/mL (≈ 4.38 µM); MIC (Trichophyton violoceum): 3 µg/mL (≈ 8.76 µM)
3 | 6 (≈ 21 µM) | 12.5 (≈ 43.7 µM) | 12.5 (≈ 43.7 µM) | 12.5 (≈ 43.7 µM) | 6 (≈ 21 µM) | 6 (≈ 21 µM) | 12.5 (≈ 43.7 µM) | 6 (≈ 21 µM) | 6 (≈ 21 µM) | 3 (≈ 10.5 µM) | 12.5 (≈ 43.7 µM) | 6 (≈ 21 µM) | 12.5 (≈ 43.7 µM) | 6 (≈ 21 µM) | 12.5 (≈ 43.7 µM) | > 100 | 6 (≈ 21 µM) | 12.5 (≈ 43.7 µM) | 12.5 (≈ 43.7 µM) | 25 (≈ 87.3 µM) | [C-]#[N+]C(=Cc1cccn1C)S(=O)(=O)c1ccc(C)cc1 [Example 30, 2-[1-isocyano-1-(4-toluenesulphonyl)-ethen-2-yl]-1-methylpyrrole] | MIC [1]: 25 µg/mL (≈ 87.3 µM); MIC (Trichophyton equinum; [24]): 0.4 µg/mL (≈ 1.4 µM); MIC (Trichophyton equinum; [25]): > 100 µg/mL; MIC [2, 26]: 50 µg/mL (≈ 175 µM); MIC [2, 27]: > 100 µg/mL; MIC [2, 28]: > 100 µg/mL; MIC [2, 29]: 100 µg/mL (≈ 349 µM); MIC [2, 30]: > 100 µg/mL; MIC [2, 31]: > 100 µg/mL; MIC (Trichophyton rubrum; [32]): 50 µg/mL (≈ 175 µM); MIC (Trichophyton rubrum; [33]): > 100 µg/mL; MIC (Trichophyton rubrum; [34]): 50 µg/mL (≈ 175 µM); MIC [3]: 25 µg/mL (≈ 87.3 µM); MIC [4]: 6 µg/mL (≈ 21 µM); MIC (Trichophyton tonsurans): 0.4 µg/mL (≈ 1.4 µM); MIC (Trichophyton verrucosum; [35]): 6 µg/mL (≈ 21 µM); MIC (Trichophyton violoceum): 6 µg/mL (≈ 21 µM)
